Results on 19 molecules are retold here after patent publication US20250145601A1, “NOVEL BICYCLIC COMPOUNDS AS RAD51 INHIBITORS” (SATYA THERAPEUTICS, INC., priority 2022, published 2025).

What is called inhibition is the drop in the measured response relative to a control, in per cent.

The assay deals with MDA MB 231 cells. The assay is described as follows: Antiproliferation assay in MDA MB 231 cells (Cell Titer Glo). The format is cell-based. The settings on record: Homo sapiens, MDA-MB-231, 216 h, MDAMB231 cell line, 9 day treatment, racemic compounds (Table 2). The method, boiled down:
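Treated for 9 days in total with rising doses, MDA MB 231 cells (250/well, 37° C, 5% CO2) got fresh compound on day 5. Viability by Cell Titer Glo luminescence (ATP), with cell-free wells subtracted as blank.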
For orientation: Cellular ATP, detected with luciferase, serves as a proxy for viable cell number.
Take `Cc1ccc(C2CC(c3c(C)c4ccsc4[nH]c3=O)=NN2C(=O)C(C)C)cc1` (stereo not shown) [Example 63, 5-(1-isobutyryl-5-(p-tolyl)-4,5-dihydro-1H-pyrazol-3-yl)-4-methyl-7,7a-dihydrothieno[2,3-b]pyridin-6(7H)-one]: the inhibition at 10 µM was no less than 50%.
Consider `Cc1ccc(C2CC(c3c(C)c4ccsc4[nH]c3=O)=NN2C(=O)C(F)(F)F)cc1` (stereo not shown) [Example 64, 4-methyl-5-(5-(p-tolyl)-1-(2,2,2-trifluoroacetyl)-4,5-dihydro-1H-pyrazol-3-yl)-7,7a-dihydrothieno[2,3-b]pyridin-6(7H)-one], for which the inhibition at 10 µM is no less than 50%.
`CCC(=O)N1N=C(c2c(C)c3ccsc3[nH]c2=O)CC1c1ccc(C)cc1Cl` (stereo not shown) [Example 65, 5-(5-(2-chloro-4-methylphenyl)-1-propionyl-4,5-dihydro-1H-pyrazol-3-yl)-4-methylthieno[2,3-b]pyridin-6(7H)-one] displayed an inhibition at 10 µM of no less than 50%.
With `CCC(=O)N1N=C(c2c(C)c3cc(Cl)cnc3[nH]c2=O)CC1c1ccc(C)cc1` (stereo not shown) [Example 67, 6-chloro-4-methyl-3-(1-propionyl-5-(p-tolyl)-4,5-dihydro-1H-pyrazol-3-yl)-1,8-naphthyridin-2(1H)-one] the figure was less than 50%; with `CCC(=O)N1N=C(c2c(C)c3ccsc3[nH]c2=O)CC1c1ccc(CF)cc1` (stereo not shown) [Example 68, 5-(5-(4-(fluoromethyl)phenyl)-1-propionyl-4,5-dihydro-1H-pyrazol-3-yl)-4-methylthieno[2,3-b]pyridin-6(7H)-one], no less than 50%.
The result for `CCC(=O)N1N=C(c2c(C)c3ncccc3[nH]c2=O)CC1c1ccc(C)cc1` (stereo not shown) [Example 69, 4-methyl-3-(1-propionyl-5-(p-tolyl)-4,5-dihydro-1H-pyrazol-3-yl)-1,5-naphthyridin-2(1H)-one] reads no less than 50%.
With `CCC(=O)N1N=C(c2c(C)c3ccsc3[nH]c2=O)CC1Cc1ccccc1` (stereo not shown) [Example 71, 5-(5-benzyl-1-propionyl-4,5-dihydro-1H-pyrazol-3-yl)-4-methylthieno[2,3-b]pyridin-6(7H)-one] the figure was no less than 50%; with `CCC(=O)N1N=C(c2c(C)c3cc(Cl)sc3[nH]c2=O)CC1c1ccc(C)cc1` (stereo not shown) [Example 72, 2-chloro-4-methyl-5-(1-propionyl-5-(p-tolyl)-4,5-dihydro-1H-pyrazol-3-yl)thieno[2,3-b]pyridin-6(7H)-one], no less than 50%.
On to `CCC(=O)N1N=C(c2c(C)c3cccnc3[nH]c2=O)CC1c1ccc(C)cc1` (stereo not shown) [Example 73, 4-methyl-3-(1-propionyl-5-(p-tolyl)-4,5-dihydro-1H-pyrazol-3-yl)-1,8-naphthyridin-2(1H)-one], for which the inhibition at 10 µM is no less than 50%.
For the molecule `CCC(=O)N1N=C(c2c(C)c3ccc(C)cc3[nH]c2=O)CC1c1ccc(C)cc1` (stereo not shown) [Example 75, 4,7-dimethyl-3-(1-propionyl-5-(p-tolyl)-4,5-dihydro-1H-pyrazol-3-yl)quinolin-2(1H)-one], the inhibition at 10 µM was no less than 50%.
Molecule `CCC(=O)N1N=C(c2c(C)c3c(C)cccc3[nH]c2=O)CC1c1ccc(C)cc1` (stereo not shown) [Example 76, 4,5-dimethyl-3-(1-propionyl-5-(p-tolyl)-4,5-dihydro-1H-pyrazol-3-yl)quinolin-2(1H)-one] registered an inhibition at 10 µM of no less than 50%.
With `CCC(=O)N1N=C(c2c(C)c3ccc(N4CCOCC4)cc3[nH]c2=O)CC1c1ccc(C)cc1` (stereo not shown) [Example 77, 4-methyl-7-morpholino-3-(1-propionyl-5-(p-tolyl)-4,5-dihydro-1H-pyrazol-3-yl)quinolin-2(1H)-one] the figure was no less than 50%; with `CCC(=O)N1N=C(c2c(C)c3cc(Cl)ncc3[nH]c2=O)CC1c1ccc(C)cc1` (stereo not shown) [Example 79, 6-chloro-4-methyl-3-(1-propionyl-5-(p-tolyl)-4,5-dihydro-1H-pyrazol-3-yl)-1,7-naphthyridin-2(1H)-one], no less than 50%.
With `CCC(=O)N1N=C(c2c(C)c3cc(C)ncc3[nH]c2=O)CC1c1ccc(C)cc1` (stereo not shown) [Example 81, 4,6-dimethyl-3-(1-propionyl-5-(p-tolyl)-4,5-dihydro-1H-pyrazol-3-yl)-1,7-naphthyridin-2(1H)-one] the figure was less than 50%; with `CCC(=O)N1N=C(c2c(C)c3ccc(F)cc3[nH]c2=O)CC1c1ccc(C)cc1` (stereo not shown) [Example 83, 7-fluoro-4-methyl-3-(1-propionyl-5-(p-tolyl)-4,5-dihydro-1H-pyrazol-3-yl)quinolin-2(1H)-one], no less than 50%.
The molecule `CCC(=O)N1N=C(c2c(C)c3ccc(C)nc3[nH]c2=O)CC1c1ccc(C)cc1` (stereo not shown) [Example 84, 4,7-dimethyl-3-(1-propionyl-5-(p-tolyl)-4,5-dihydro-1H-pyrazol-3-yl)-1,8-naphthyridin-2(1H)-one] returned an inhibition at 10 µM of no less than 50%.
The result for `CCC(=O)N1N=C(c2c(C)c3cnccc3[nH]c2=O)CC1c1ccc(C)cc1` (stereo not shown) [Example 85, 4-methyl-3-(1-propionyl-5-(p-tolyl)-4,5-dihydro-1H-pyrazol-3-yl)-1,6-naphthyridin-2(1H)-one] reads no less than 50%; that for `CCC(=O)N1N=C(c2c(C)c3ccc(N4CCOCC4)nc3[nH]c2=O)CC1c1ccc(C)cc1` (stereo not shown) [Example 86, 4-methyl-7-morpholino-3-(1-propionyl-5-(p-tolyl)-4,5-dihydro-1H-pyrazol-3-yl)-1,8-naphthyridin-2(1H)-one], less than 50%; that for `CCC(=O)N1N=C(c2c(C)c3ccc(OCCOC)nc3[nH]c2=O)CC1c1ccc(C)cc1` (stereo not shown) [Example 87, 7-(2-methoxyethoxy)-4-methyl-3-(1-propionyl-5-(p-tolyl)-4,5-dihydro-1H-pyrazol-3-yl)-1,8-naphthyridin-2(1H)-one], no less than 50%.
